“And” between values parts separate entries of the source, which are not always exact repeats. Equal values may be shown once. Read-outs that look alike come from different tables or passages of the source. Marks after values point to notes of the source that are not given here.
Test: Phase 1 crossover PK study: oral solution fed/fasted vs IV infusion in healthy subjects
Type: in vivo, human
Details: for bioavailability: dose increasing from 180 mg to 320 mg
Procedure: This pharmacokinetic (PK) study in healthy subjects was conducted to characterize and compare the PK parameters in plasma following a single intravenous (IV) dose of Elraglusib Injection, Elraglusib Oral Solution after fasting, and Elraglusib Oral Solution after a high-fat meal (fed). The study was intended to assess the potential feasibility of an oral formulation of elraglusib based on systemic exposure being within the biologically active range. In clinical studies conducted to date, elraglusib Injection (10 mg/mL) is administered IV once or twice per week over multiple hours, which requires a significant amount of time and resources by both patients and site personnel. […] See Example 3 above.
The route of administration is by IV infusion after diluting elraglusib for injection with 0.9% Sodium Chloride Injection.
It is a clear, red solution, free of visible particulate matter and a low bioburden liquid dosage form that is self-preserving against microbial growth.
Subjects received a single 3.3 mg/kg dose of each of the following in a randomly assigned order separated by a 2-week period.
During the study, the high fat meal was administered over a period of under 30 minutes (in almost all cases, 28 minutes).
Elraglusib Injection (10 mg/mL) administered as an IV infusion over 60 minutes (concentration in mg/mL and infusion rate in mL/kg/hour could vary depending on the subject's body weight).
PK parameters including AUC, Cmax, Tmax, and t1/2 were analyzed by standard non-compartmental analysis (NCA) methods following each of the elraglusib doses. Log transformed Cmax and AUC parameters in subjects having adequate PK data following at least 1 of the oral and IV doses were used to assess the relative bioavailability of the oral dose (fed and/or fasted) compared to the IV dose.
All efforts were made to obtain the PK samples at the scheduled nominal times relative to dosing. PK samples were assayed using validated analytical methods.

[1] = oral 3.3 mg/kg fasted state, human plasma
[2] = oral 3.3 mg/kg fed state, human plasma
[3] = oral fasted vs IV infusion, 3.3 mg/kg
[4] = oral fed vs IV infusion, 3.3 mg/kg
[5] = oral fed vs oral fasted, 3.3 mg/kg

- Tmax (human, plasma, po, 3.3 mg/kg, oral 3.3 mg/kg fasted state, human plasma, read-out: Tmax Median): 2 h
- half-life (human, plasma, po, 3.3 mg/kg, oral 3.3 mg/kg fasted state, human plasma, read-out: t1/2 Arithmetic Mean (converted)): 16.4 h
- half-life (human, plasma, po, 3.3 mg/kg, oral 3.3 mg/kg fasted state, human plasma, read-out: t1/2 GMean (converted)): 15.6 h
- half-life (human, plasma, po, 3.3 mg/kg, oral 3.3 mg/kg fasted state, human plasma, read-out: t1/2 Median (converted)): 18.2 h
- AUC (human, plasma, po, 3.3 mg/kg, oral 3.3 mg/kg fed state, human plasma, read-out: AUC24 Arithmetic Mean): 3930 ng·h/mL
- AUC (human, plasma, po, 3.3 mg/kg, oral 3.3 mg/kg fed state, human plasma, read-out: AUC24 GMean): 3420 ng·h/mL
- AUC (human, plasma, po, 3.3 mg/kg, oral 3.3 mg/kg fed state, human plasma, read-out: AUC24 Median): 3990 ng·h/mL
- AUC (human, plasma, po, 3.3 mg/kg, oral 3.3 mg/kg fed state, human plasma, read-out: AUC48 Arithmetic Mean): 4550 ng·h/mL
- AUC (human, plasma, po, 3.3 mg/kg, oral 3.3 mg/kg fed state, human plasma, read-out: AUC48 GMean): 3980 ng·h/mL
- AUC (human, plasma, po, 3.3 mg/kg, oral 3.3 mg/kg fed state, human plasma, read-out: AUC48 Median): 4440 ng·h/mL
- AUC (human, plasma, po, 3.3 mg/kg, oral 3.3 mg/kg fed state, human plasma, read-out: AUC72 Arithmetic Mean): 4780 ng·h/mL
- AUC (human, plasma, po, 3.3 mg/kg, oral 3.3 mg/kg fed state, human plasma, read-out: AUC72 GMean): 4160 ng·h/mL
- AUC (human, plasma, po, 3.3 mg/kg, oral 3.3 mg/kg fed state, human plasma, read-out: AUC72 Median): 4600 ng·h/mL
- AUC (human, plasma, po, 3.3 mg/kg, oral 3.3 mg/kg fed state, human plasma, read-out: AUC96 Arithmetic Mean): 4890 ng·h/mL
- AUC (human, plasma, po, 3.3 mg/kg, oral 3.3 mg/kg fed state, human plasma, read-out: AUC96 GMean): 4250 ng·h/mL
- AUC (human, plasma, po, 3.3 mg/kg, oral 3.3 mg/kg fed state, human plasma, read-out: AUC96 Median): 4730 ng·h/mL
- AUC(0-t) (human, plasma, po, 3.3 mg/kg, oral 3.3 mg/kg fed state, human plasma, read-out: AUClast Arithmetic Mean): 4890 ng·h/mL
- AUC(0-t) (human, plasma, po, 3.3 mg/kg, oral 3.3 mg/kg fed state, human plasma, read-out: AUClast GMean): 4250 ng·h/mL
- AUC(0-t) (human, plasma, po, 3.3 mg/kg, oral 3.3 mg/kg fed state, human plasma, read-out: AUClast Median): 4730 ng·h/mL
- AUC(0-inf) (human, plasma, po, 3.3 mg/kg, oral 3.3 mg/kg fed state, human plasma, read-out: AUC∞ Arithmetic Mean): 5000 ng·h/mL
- AUC(0-inf) (human, plasma, po, 3.3 mg/kg, oral 3.3 mg/kg fed state, human plasma, read-out: AUC∞ GMean): 4330 ng·h/mL
- AUC(0-inf) (human, plasma, po, 3.3 mg/kg, oral 3.3 mg/kg fed state, human plasma, read-out: AUC∞ Median): 5020 ng·h/mL
- CL/F (human, plasma, po, 3.3 mg/kg, oral 3.3 mg/kg fed state, human plasma, read-out: CL/F Arithmetic Mean (converted)): 15.1 mL/min/kg
- CL/F (human, plasma, po, 3.3 mg/kg, oral 3.3 mg/kg fed state, human plasma, read-out: CL/F GMean (converted)): 12.7 mL/min/kg
- CL/F (human, plasma, po, 3.3 mg/kg, oral 3.3 mg/kg fed state, human plasma, read-out: CL/F Median (converted)): 11 mL/min/kg
- Cmax (human, plasma, po, 3.3 mg/kg, oral 3.3 mg/kg fed state, human plasma, read-out: Cmax Arithmetic Mean): 592 ng/mL
- Cmax (human, plasma, po, 3.3 mg/kg, oral 3.3 mg/kg fed state, human plasma, read-out: Cmax GMean): 474 ng/mL
- Cmax (human, plasma, po, 3.3 mg/kg, oral 3.3 mg/kg fed state, human plasma, read-out: Cmax Median): 507 ng/mL
- Tmax (human, plasma, po, 3.3 mg/kg, oral 3.3 mg/kg fed state, human plasma, read-out: Tmax Arithmetic Mean): 5.34 h
- Tmax (human, plasma, po, 3.3 mg/kg, oral 3.3 mg/kg fed state, human plasma, read-out: Tmax GMean): 5.02 h
- Tmax (human, plasma, po, 3.3 mg/kg, oral 3.3 mg/kg fed state, human plasma, read-out: Tmax Median): 5 h
- Vd/F (human, plasma, po, 3.3 mg/kg, oral 3.3 mg/kg fed state, human plasma, read-out: Vz/F GMean): 20.9 L/kg and 1530 L
- half-life (human, plasma, po, 3.3 mg/kg, oral 3.3 mg/kg fed state, human plasma, read-out: t1/2 Arithmetic Mean (converted)): 20.8 h
- half-life (human, plasma, po, 3.3 mg/kg, oral 3.3 mg/kg fed state, human plasma, read-out: t1/2 GMean (converted)): 19 h
- half-life (human, plasma, po, 3.3 mg/kg, oral 3.3 mg/kg fed state, human plasma, read-out: t1/2 Median (converted)): 21.2 h
- AUC(0-t) (human, plasma, po, 3.3 mg/kg, oral 3.3 mg/kg, Fasted, read-out: AUClast LS Means): 1460 ng·h/mL
- AUC(0-inf) (human, plasma, po, 3.3 mg/kg, oral 3.3 mg/kg, Fasted, read-out: AUC∞ LS Means): 1480 ng·h/mL
- Cmax (human, plasma, po, 3.3 mg/kg, oral 3.3 mg/kg, Fasted, read-out: Cmax LS Means): 133 ng/mL
- AUC(0-t) (human, plasma, po, 3.3 mg/kg, oral 3.3 mg/kg, Fed, read-out: AUClast LS Means): 4250 ng·h/mL
- AUC(0-inf) (human, plasma, po, 3.3 mg/kg, oral 3.3 mg/kg, Fed, read-out: AUC∞ LS Means): 4330 ng·h/mL
- Cmax (human, plasma, po, 3.3 mg/kg, oral 3.3 mg/kg, Fed, read-out: Cmax LS Means): 474 ng/mL
- bioavailability (human, plasma, po, human, fasting, read-out: oral bioavailability, FAUC∞ based regression): 14 to 24%
- bioavailability (human, plasma, po, human, fasting, read-out: oral bioavailability, FCmax based regression): 4 to 16%
- bioavailability (human, plasma, po, human, fed state, read-out: oral bioavailability, FAUC∞ based regression): 41 to 71%
- bioavailability (human, plasma, po, human, fed state, read-out: oral bioavailability, FCmax based regression): 16 to 52%
- % extrap Arithmetic Mean [1]: 1.518%
- % extrap GMean [1]: 1.219%
- % extrap Median [1]: 1.45%
- AUC∞/Dose Arithmetic Mean [1]: 7.224 ng·h/mL/mg
- AUC∞/Dose GMean [1]: 6.128 ng·h/mL/mg
- AUC∞/Dose Median [1]: 5.77 ng·h/mL/mg
- Clast Arithmetic Mean [1]: 1.158 ng/mL
- Clast GMean [1]: 0.8024 ng/mL
- Clast Median [1]: 0.719 ng/mL
- Cmax/Dose Arithmetic Mean [1]: 0.6705 ng/mL/mg
- Cmax/Dose GMean [1]: 0.5482 ng/mL/mg
- Cmax/Dose Median [1]: 0.622 ng/mL/mg
- R^2 Arithmetic Mean [1]: 0.9926 #
- R^2 GMean [1]: 0.9925 #
- R^2 Median [1]: 0.9962 #
- λZ Arithmetic Mean [1]: 0.04754 h⁻¹
- λZ GMean [1]: 0.04443 h⁻¹
- λZ Median [1]: 0.0381 h⁻¹
- % extrap Arithmetic Mean [2]: 1.865%
- % extrap GMean [2]: 1.301%
- % extrap Median [2]: 1.73%
- AUC∞/Dose Arithmetic Mean [2]: 20.18 ng·h/mL/mg
- AUC∞/Dose GMean [2]: 17.90 ng·h/mL/mg
- AUC∞/Dose Median [2]: 19.2 ng·h/mL/mg
- Clast Arithmetic Mean [2]: 3.055 ng/mL
- Clast GMean [2]: 2.053 ng/mL
- Clast Median [2]: 2.03 ng/mL
- Cmax/Dose Arithmetic Mean [2]: 2.340 ng/mL/mg
- Cmax/Dose GMean [2]: 1.958 ng/mL/mg
- Cmax/Dose Median [2]: 2.11 ng/mL/mg
- R^2 Arithmetic Mean [2]: 0.9928 #
- R^2 GMean [2]: 0.9928 #
- R^2 Median [2]: 0.9963 #
- λZ Arithmetic Mean [2]: 0.04026 h⁻¹
- λZ GMean [2]: 0.03648 h⁻¹
- λZ Median [2]: 0.0327 h⁻¹
- Relative bioavailability, Ratio (%) Fasted/IV, AUClast [3]: 17.11%
- Relative bioavailability, Ratio (%) Fasted/IV, AUC∞ [3]: 17.15%
- Relative bioavailability, Ratio (%) Fasted/IV, Cmax [3]: 7.62%
- Relative bioavailability, Ratio (%) Fed/IV, AUClast [4]: 50.75%
- Relative bioavailability, Ratio (%) Fed/IV, AUC∞ [4]: 51.06%
- Relative bioavailability, Ratio (%) Fed/IV, Cmax [4]: 27.24%
- Relative bioavailability, Ratio (%) Fed/Fasted, AUClast [5]: 291.00%
- Relative bioavailability, Ratio (%) Fed/Fasted, AUC∞ [5]: 292.05%
- Relative bioavailability, Ratio (%) Fed/Fasted, Cmax [5]: 357.10%
- concentration at 96 h (plasma, other: oral solution (fed and fasted) and IV infusion, 3.3 mg/kg, human, individual subjects, across treatments, read-out: quantifiable plasma concentrations at 96 hours post-dose): 0.273 to 7.18 ng/mL
Structure (SMILES): Cn1cc(C2=C(c3coc4ccc(F)cc34)C(=O)NC2=O)c2cc3c(cc21)OCO3 [elraglusib, 3-(5-fluorobenzofuran-3-yl)-4-(5-methyl-5H-[1,3]dioxolo[4,5-f]indol-7-yl)-1H-pyrrole-2,5-dione]
